Reference: patent publication US10941139B2, “Cryptophycin compounds and conjugates, their preparation and their therapeutic use” (priority 2015, dated 2021)
Where “and” joins values, the source holds several entries; their conditions need not be identical. Equal values may be shown once. Read-outs that look alike come from different tables or passages of the source.

What was measured:
MDA-MB-231 cells = test: Inhibition of proliferation of the MDA-MB-231 cell line by the cryptophycin compounds of formula (I) (14C-thymidine incorporation); assay type: cell-based; settings: 14C-thymidine incorporation at 96 h, tested as pure β epoxide or α/β epoxide mixture (structural comment), read-out: IC50 (pM) MDA-MD-231
Protocol: (§1) Evaluation of the Inhibition of Proliferation of the HCT116 and MDA-MB-231 Cell Lines by the Cryptophycin Compounds of Formula (I)
(§2) HCT116 and MDA-MB-231 cells in their exponential growth phase were trypsinized and resuspended in their respective culture medium (DMEM/F12 Gibco #21331, 10% FCS Gibco #10500-056, […] Gibco #25030 for the MDA-MB-231 cells; DMEM Gibco #11960, 10% FCS Gibco #10500-056, 2 mM glutamine Gibco #25030 for the HCT116 cells). The cell suspension was seeded in Cytostar 96-well culture plates (GE Healthcare Europe, # RPNQ0163) in the whole culture medium containing serum at a density of 5000 cells/well. After incubation for 4 h, successive dilutions of the cryptophycin compounds were added to the wells at concentrations decreasing from 10^−7 to 10^−12 M (in triplicate for each concentration). The cells were cultured at 37° C. in an atmosphere containing 5% CO2 in the presence of the cryptophycin compounds for 3 d. On the 4th day, 10 μl of a ^14C-thymidine solution (0.1 μCi/well, Perkin Elmer # NEC56825000) were added to each well. The incorporation of ^14C-thymidine was measured 96 h after the start of the experiment with a microbeta radioactivity counter (Perkin Elmer). The data were expressed in the form of a percentage of survival by determining the ratio between the reduced count obtained with the cells treated with the cryptophycin compound and the count obtained with the cells of the control wells (treated with the culture medium alone).
(§3) The inhibitory activity is given by the concentration which inhibits 50% of the activity.

[1] = 16-membered ring
HCT116 cells = test: Inhibition of proliferation of the HCT116 cell line by the cryptophycin compounds of formula (I) (14C-thymidine incorporation); assay type: cell-based; settings: tested as pure β epoxide or α/β epoxide mixture (structural comment)
Protocol: as §1, §2, §3

lung cancer = settings: two phase II lung cancer trials; cited from earlier work
[2] = Homo sapiens, HCT-116, 14C-thymidine incorporation at 96 h

COc1ccc(C[C@H]2NC(=O)/C=C/C[C@@H]([C@H](C)C3OC3c3ccc(CO)cc3)OC(=O)[C@H](C(C)(C)C)NC(=O)C(C)(C)CNC2=O)cc1Cl (stereo partly drawn) [Ex. 17, (3S,10R,16S,E)-10-(3-chloro-4-methoxybenzyl)-16-((S)-1-(3-(4-(hydroxy-methyl)phenyl)oxiran-2-yl)ethyl)-3-tert-butyl-6,6-dimethyl-1-oxa-4,8,11-triazacyclohexadec-13-ene-2,5,9,12-tetraone] gave an IC50 (MDA-MB-231 cells; Homo sapiens, MDA-MB-231) of 856 pM.

Work on COc1ccc(C[C@H]2NC(=O)/C=C/C[C@@H]([C@H](C)C3OC3c3ccc(CO)cc3)OC(=O)[C@H](C(C)C)NC(=O)C(C)(C)CNC2=O)cc1Cl (stereo partly drawn) [Ex. 16, (3S,10R,16S,E)-10-(3-chloro-4-methoxybenzyl)-16-((S)-1-(3-(4-(hydroxy-methyl)phenyl)oxiran-2-yl)ethyl)-6,6-dimethyl-3-isopropyl-1-oxa-4,8,11-triazacyclohexadec-13-ene-2,5,9,12-tetraone] yielded an IC50 (MDA-MB-231 cells; Homo sapiens, MDA-MB-231) of 2820 pM.

With “(3S,10R,16S, E)-10-(3-chloro-4-methoxybenzyl)-16-((R,E)-4-(4-(hydroxymethyl)-phenyl)but-3-en-2-yl)-6,6,7-trimethyl-3-neopentyl-1-oxa-4,8,11-triazacyclohexadec-13-ene-2,5,9,12-tetraone” the ring closure, isolated yield ([1]; amide bond) was 54%.

For COc1ccc(C[C@H]2NC(=O)/C=C/C[C@@H]([C@H](C)[C@H]3O[C@@H]3c3ccc(CN)cc3)OC(=O)[C@H](CC(C)C)NC(=O)C(C)(C)C(C)NC2=O)cc1Cl (stereo partly drawn) [Ex. 18, (3S,10R,16S,E)-16-((S)-1-((2R,3R)-3-(4-(aminomethyl)phenyl)oxiran-2-yl)ethyl)-10-(3-chloro-4-methoxybenzyl)-3-isobutyl-6,6,7-trimethyl-1-oxa-4,8,11-triazacyclohexadec-13-ene-2,5,9,12-tetraone], the IC50 (HCT116 cells; [2]) was 179 pM and the IC50 (MDA-MB-231 cells; Homo sapiens, MDA-MB-231) was 228 pM.

For “(3S,10R,16S,E)-16-((R,E)-4-(4-(azidomethyl)phenyl)but-3-en-2-yl)-10-(3-chloro-4-methoxybenzyl)-3-isobutyl-6,6-dimethyl-1-oxa-4,8,11-triazacyclohexadec-13-ene-2,5,9,12-tetraone”, the ring closure, isolated yield ([1]; amide bond) was 68%.

In the case of “(3S,10R,16S, E)-10-(3-chloro-4-methoxybenzyl)-16-((R,E)-4-(4-(hydroxymethyl)-phenyl)but-3-en-2-yl)-6,6-dimethyl-3-neopentyl-1-oxa-4,8,11-triazacyclohexadec-13-ene-2,5,9,12-tetraone”, the ring closure, isolated yield ([1]; amide bond) is reported as 70%.

Compound COc1ccc(C[C@H]2NC(=O)/C=C/C[C@@H]([C@H](C)[C@H]3O[C@@H]3c3ccc(CO)cc3)OC(=O)[C@H](CC(C)(C)C)NC(=O)C(C)(C)CNC2=O)cc1Cl [Ex. 4, (3S,10R,16S,E)-10-(3-chloro-4-methoxybenzyl)-16-((S)-1-((2R,3R)-3-(4-(hydroxy-methyl)phenyl)oxiran-2-yl)ethyl)-6,6-dimethyl-3-neopentyl-1-oxa-4,8,11-triazacyclohexadec-13-ene-2,5,9,12-tetraone] has an IC50 (HCT116 cells; [2]) of 51 pM and an IC50 (MDA-MB-231 cells; Homo sapiens, MDA-MB-231) of 82 pM.

COc1ccc(C[C@H]2NC(=O)/C=C/C[C@@H]([C@H](C)[C@H]3O[C@@H]3c3ccc(CN)cc3)OC(=O)[C@H](CC(C)C)NC(=O)C(C)(C)CNC2=O)cc1Cl [Ex. 1, (3S,10R,16S,E)-16-((S)-1-((2R,3R)-3-(4-(aminomethyl)phenyl)oxiran-2-yl)ethyl)-10-(3-chloro-4-methoxybenzyl)-3-isobutyl-6,6-dimethyl-1-oxa-4,8,11-triazacyclohexadec-13-ene-2,5,9,12-tetraone] showed an IC50 (HCT116 cells; [2]) of 163 pM and an IC50 (MDA-MB-231 cells; Homo sapiens, MDA-MB-231) of 250 pM.

In the case of COc1ccc(C[C@H]2NC(=O)/C=C/C[C@@H]([C@H](C)[C@H]3O[C@@H]3c3ccccc3)OC(=O)[C@H](CC(C)C)OC(=O)C(C)(C)CNC2=O)cc1Cl [C-52, cryptophycin C-52, reference compound], the IC50 (HCT116 cells; 14C-thymidine incorporation at 96 h) is given as 76 pM, the stable disease (lung cancer) is given as 30-40% and the IC50 (MDA-MB-231 cells) is given as 90 pM.

With “(3S,10R,16S,E)-16-((S)-1-((2R,3R)-3-(4-(aminomethyl)phenyl)oxiran-2-yl)ethyl)-10-(3-chloro-4-methoxybenzyl)-6-methyl-3-neopentyl-6-(((triethylsilyl)oxy)methyl)-1-oxa-4, 8,11-triazacyclohexadec-13-ene-2,5,9,12-tetraone [Ex. 32]” the IC50 (MDA-MB-231 cells) was 1780 pM.

Compound COc1ccc(C[C@H]2NC(=O)/C=C/C[C@@H]([C@H](C)[C@H]3O[C@@H]3c3ccc(CO)cc3)OC(=O)[C@H](CC(C)(C)C)NC(=O)C(C)(C)C(C)NC2=O)cc1Cl (stereo partly drawn) [Ex. 11, (3S,10R,16S,E)-10-(3-chloro-4-methoxybenzyl)-16-((S)-1-((2R,3R)-3-(4-(hydroxymethyl)phenyl)oxiran-2-yl)ethyl)-6,6,7-trimethyl-3-neopentyl-1-oxa-4,8,11-triazacyclohexadec-13-ene-2,5,9,12-tetraone] has an IC50 (MDA-MB-231 cells; Homo sapiens, MDA-MB-231) of 102 pM.

COc1ccc(C[C@H]2NC(=O)/C=C/C[C@@H]([C@H](C)C3OC3c3ccc(CO)cc3)OC(=O)[C@H](C)NC(=O)C(C)(C)CNC2=O)cc1Cl (stereo partly drawn) [Ex. 15, (3S,10R,16S,E)-10-(3-chloro-4-methoxybenzyl)-16-((S)-1-(3-(4-(hydroxy-methyl)phenyl)oxiran-2-yl)ethyl)-3,6,6-trimethyl-1-oxa-4,8,11-triazacyclohexadec-13-ene-2,5,9,12-tetraone] gave an IC50 (MDA-MB-231 cells; Homo sapiens, MDA-MB-231) of 511 pM.

Work on “(3S,7S,10R,16S, E)-10-(3-chloro-4-methoxybenzyl)-16-((R)-1-((4-methoxy-benzyl)oxy)propan-2-yl)-6,6,7-trimethyl-3-neopentyl-1-oxa-4,8,11-triazacyclohexadec-13-ene-2,5,9,12-tetraone” yielded a ring closure, isolated yield ([1]; rcm bond) of 61%.

COc1ccc(C[C@H]2NC(=O)/C=C/C[C@@H]([C@H](C)C3OC3c3ccc(CN)cc3)OC(=O)[C@H](CC(C)C)NC(=O)C(C)(C)C(C)NC2=O)cc1Cl (stereo partly drawn) [Ex. 8, (3S,10R,16S,E)-16-((S)-1-(3-(4-(aminomethyl)phenyl)oxiran-2-yl)ethyl)-10-(3-chloro-4-methoxybenzyl)-3-isobutyl-6,6,7-trimethyl-1-oxa-4,8,11-triazacyclohexadec-13-ene-2,5,9,12-tetraone] showed an IC50 (HCT116 cells; [2]) of 518 pM and an IC50 (MDA-MB-231 cells; Homo sapiens, MDA-MB-231) of 564 pM.

In the case of “(3S,10R,16S,E)-10-(3-chloro-4-methoxybenzyl)-6-(hydroxymethyl)-16-((R)-1-((4-methoxybenzyl)oxy)propan-2-yl)-6-methyl-3-neopentyl-1-oxa-4,8,11-triazacyclohexadec-13-ene-2,5,9,12-tetraone”, the ring closure, isolated yield ([1]; rcm bond) is reported as 56% and 37%.

Compound “(3S,10R,16S, E)-16-((R,E)-4-(4-(azidomethyl)phenyl)but-3-en-2-yl)-10-(3-chloro-4-methoxybenzyl)-3-isobutyl-6,6,7-trimethyl-1-oxa-4,8,11-triazacyclohexadec-13-ene-2,5,9,12-tetraone” has a ring closure, isolated yield ([1]; amide bond) of 53%.
